Active and inactive are the calls of the source. How the calls were made is not given here.
The compounds below were run on HEK-293T NF-kB luciferase reporter, luminescence counterscreen (assay: NF-kB reporter suppression in HEK-293T cells – luminescence, B-cell screen hits, counter-screen for BCR NF-kB inhibitor project, dose response (AID 489022)).
In the case of `COc1ccc(-c2ccc(OC)c([C@H]3[C@H]4C=CC[C@@H](C)[C@@H]4C(=O)N3Cc3ccccc3)c2)cc1C`, the IC50 is reported as > 80 µM (inactive).
Work on `COc1ccc(NS(=O)(=O)c2ccc(-c3coc(C)n3)cc2)cc1OC` yielded an IC50 of 0.66 µM.
Compound `COc1ccc(-c2ccc(F)cc2)cc1[C@H]1[C@H]2C=CC[C@@H](C)[C@@H]2C(=O)N1Cc1ccccc1` has an IC50 of 13.1 µM.
For `COc1ccc(C(=O)N/N=C/c2ccc(OC)c(CN3CCCc4ccccc43)c2)cc1`, the IC50 was > 80 µM (inactive).
With `C=CCOc1ccc(/C=C2\SC(=S)N(CCC(=O)O)C2=O)cc1` the IC50 was 51.4 µM (inactive).
In the case of `Cc1ccc(-c2cc(C(=O)NCCCN3CCOCC3)no2)cc1`, the IC50 is reported as > 80 µM (inactive).
With `CCOC(=O)Cc1csc(NC(=S)NC(=O)c2ccc(Cl)cc2)n1` the IC50 was > 80 µM (inactive).
For `Cc1cccc(C(=O)Nc2ccc(CC(=O)O)cc2)c1`, the IC50 was 45.2 µM (inactive).
For `COc1ccc(Cc2nc(-c3ccc(NC(=O)c4cccnc4)cc3)no2)cc1`, the IC50 was > 80 µM (inactive).
In the case of `Cc1cc(NC(=O)CCCN2C(=O)/C(=C/c3ccccc3Cl)SC2=S)no1`, the IC50 is reported as > 80 µM (inactive).
In the case of `COc1ccc(C(=O)N/N=C/c2sc(N3CCOCC3)nc2-c2ccccc2)cc1OC`, the IC50 is reported as 14 µM.
`Cc1cc(C)c(S(=O)(=O)NCc2ccncc2)c(C)c1` gave an IC50 of 0.97 µM.
`CC1CCN(C(=O)CCCOc2cc(=O)n(C)c3ccccc23)CC1` was tested, and the IC50 was > 80 µM (inactive).
Compound `CC(=O)C1=NN(c2ccccc2)C(c2cccs2)N1c1ccc(N(C)C)cc1` (stereo not given) has an IC50 of 5.42 µM.
Work on `COc1ccc(OCc2cccc(C(=O)Nn3cc([N+](=O)[O-])cn3)c2)cc1` yielded an IC50 of 11.9 µM.
In the case of `N=c1ccn2c(n1)O[C@H]1[C@H](O)[C@@H](CO)O[C@H]12`, the IC50 is reported as > 80 µM (inactive).
With `CCOc1ccc(/C=C2\SC(=S)N(CCC(=O)Nc3ccc(C(=O)O)cc3)C2=O)cc1` the IC50 was > 80 µM (inactive).
For `CCNc1nc(C)c2cc(Br)c(=O)n(CC)c2n1`, the IC50 was > 80 µM (inactive).
In the case of `COc1ccc(/C=C2\SC(=S)N(CCC(=O)Nc3ccc(C(=O)O)cc3)C2=O)cc1`, the IC50 is reported as > 80 µM (inactive).
For `CCC(C)N1C(=O)/C(=C/c2c(NCCCOC(C)C)nc3c(C)cccn3c2=O)SC1=S` (stereo not given), the IC50 was > 80 µM (inactive).
For `N#CC1=C(N)Oc2cc(Nc3ccccc3)ccc2C1c1ccncc1` (stereo not given), the IC50 was 6.15 µM.
With `CCn1c(=O)c2cc(C(=O)NCc3cccs3)sc2c2ccccc21` the IC50 was > 80 µM (inactive).
Work on `CC1(C)CC2CC(C)(CN2S(=O)(=O)c2ccc(C(=O)Nc3ccc(S(=O)(=O)N4CCOCC4)cc3)cc2)C1` (stereo not given) yielded an IC50 of 0.68 µM.
In the case of `CN1C(=O)CSc2ccc(NC(=O)N3CCN(c4ccccc4)CC3)cc21`, the IC50 is reported as 50.5 µM (inactive).
`COc1ccc(-c2csc3nc(-c4cccnc4)nc(N4CCC(C(N)=O)CC4)c23)cc1OC` gave an IC50 of 9.06 µM.
For `COC(=O)c1cc(NC(=O)Nc2cc(OC)ccc2OC)cc(C(=O)OC)c1`, the IC50 was > 80 µM (inactive).
With `Cn1c(=O)n(C)c2cc(NS(=O)(=O)c3ccccc3)ccc21` the IC50 was 59.3 µM (inactive).
`COc1ccccc1/C=C1\SC(=S)N(CCC(=O)NC2=NCCS2)C1=O` was tested, and the IC50 was > 80 µM (inactive).
With `COc1ccc(CC(=O)Nc2cccc(-c3ccc4nnc(C)n4n3)c2)cc1` the IC50 was 41.8 µM (inactive).
With `COC(=O)c1c(-c2ccc(N(C)C)cc2)sc2ccc(OC)cc12` the IC50 was > 80 µM (inactive).
For `Cc1ccc(-c2c[n+]3c(n2-c2ccccc2)SCC3)cc1`, the IC50 was 7.4 µM.
With `COc1ccc(-c2ccc(OC)c([C@H]3[C@H]4C=CC[C@@H](C)[C@@H]4C(=O)N3Cc3ccccc3)c2)cc1` the IC50 was 55.5 µM (inactive).
In the case of `Cc1csc(NC(=O)CCc2c(C)nc3cc(-c4ccc(Cl)cc4)nn3c2C)n1`, the IC50 is reported as 10.2 µM.
With `CCOC(=O)Cc1csc(NC(=S)NC(=O)c2ccc(C)cc2)n1` the IC50 was > 80 µM (inactive).
In the case of `Cc1nc2cc(-c3ccccc3)nn2c(C)c1CCC(=O)NCc1ccco1`, the IC50 is reported as > 80 µM (inactive).
Work on `CCN1C(=O)c2cccc3c(S(=O)(=O)N4CCC(C)CC4)ccc1c23` yielded an IC50 of 17.5 µM.
For `COc1ccc(/C=C2\SC(=O)N(CCCC(=O)Nc3ccc(C(=O)O)cc3)C2=O)cc1OC`, the IC50 was > 80 µM (inactive).
With `CCc1ccc(/C=C2\SC(=S)N(CCC(=O)Nc3cc(C)on3)C2=O)cc1` the IC50 was > 80 µM (inactive).
In the case of `COC(=O)[C@@H]1Cc2c([nH]c3ccccc23)C(C)(C)N1C(=O)CCl`, the IC50 is reported as 36 µM (inactive).
For `COc1ccc(-c2nc(CSCC(=O)NCc3ccco3)c(C)o2)cc1`, the IC50 was 38.5 µM (inactive).
`CCOC(=O)c1cc2c(=O)n3ccccc3nc2n(CC(C)C)c1=NC(=O)c1c(-c2c(F)cccc2Cl)noc1C` gave an IC50 of 5.33 µM.
With `CCCNC(=O)c1ccc(N2CCC3(CC2)CC(c2cccc(Br)c2)=NO3)c(NC(=O)c2ccc(Cl)c([N+](=O)[O-])c2)c1` the IC50 was > 80 µM (inactive).
With `CCn1c(=O)cc(OCC(=O)N(C)C2CCCCC2)c2ccccc21` the IC50 was > 80 µM (inactive).
In the case of `COc1ccc(/C=C2/SC(=S)N(CCCC(=O)Nc3cccc(O)c3)C2=O)cc1`, the IC50 is reported as 27.5 µM (inactive).
For `CC(C)OCCCNC(=O)c1c(N)n(/N=C/c2ccccn2)c2nc3ccccc3nc12`, the IC50 was > 80 µM (inactive).
For `CCOc1ccc(-c2nnc(SCC(=O)Nc3cc(C)on3)o2)cc1`, the IC50 was > 80 µM (inactive).
For `O=C(NNC(=O)c1ccccc1O)c1ccc(Cl)c(S(=O)(=O)N2CCc3ccccc32)c1`, the IC50 was 0.47 µM.
`CCn1c(=S)[nH]c2cc(S(=O)(=O)N3CCCCC3)ccc21` was tested, and the IC50 was 33.9 µM (inactive).
For `Cc1nc(Nc2c(Cl)cccc2Cl)sc1C(=O)Nc1ccccc1`, the IC50 was 33 µM (inactive).
For `Cn1c(=O)cc(OCCCC(=O)NC2CCCC2)c2ccccc21`, the IC50 was 46 µM (inactive).
For `COCCCn1c(=O)/c(=C\c2cccc(OC)c2OC)s/c1=C(/C#N)C(=O)Nc1ccc(C(=O)O)cc1`, the IC50 was 34.1 µM (inactive).
For `CCN(CC(=O)Nc1c(F)cccc1F)C(=O)c1cc(S(=O)(=O)N(CC)CC)ccc1N1CCCCC1`, the IC50 was 26.8 µM (inactive).
In the case of `Cn1c(=O)c2c(SCC(=O)Nc3ccccc3F)nc(-c3ccccc3F)nc2n(C)c1=O`, the IC50 is reported as > 80 µM (inactive).
With `O=C(N/N=C/c1ccc(Cl)cc1Cl)c1ccc(-n2cnnn2)cc1` the IC50 was > 80 µM (inactive).
In the case of `COc1ccccc1/C=C1\SC(=S)N(CCC(=O)Nc2cccc(O)c2)C1=O`, the IC50 is reported as > 80 µM (inactive).
In the case of `COc1cc(C(=O)Nc2cc(C)c(OCC(=O)N3CCOCC3)c(C)c2)cc(OC)c1OC`, the IC50 is reported as > 80 µM (inactive).
With `CC(C)(C)C(=O)/C(=C/c1ccncc1)n1cncn1` the IC50 was 20.9 µM (inactive).
In the case of `Cc1cnc(NC(=O)Nc2ccc(Cl)cc2)s1`, the IC50 is reported as > 80 µM (inactive).
In the case of `Cc1ccc(S(=O)(=O)Nc2ccc3c(c2)n(C)c(=O)n3C)cc1`, the IC50 is reported as 65.2 µM (inactive).
Compound `CCOC(=O)CNC(=O)CSc1nnc(NC(=O)c2ccc(C)cc2)s1` has an IC50 of 7.13 µM.
`COc1ccc(-c2ccc(C(C)=O)cc2)cc1[C@H]1[C@H]2C=CC[C@@H](C)[C@@H]2C(=O)N1Cc1ccccc1` was tested, and the IC50 was 14.2 µM.
`CC1CN(S(=O)(=O)c2ccc(C(=O)Nc3nc(-c4cc5ccccc5o4)cs3)cc2)CC(C)O1` (stereo not given) showed an IC50 of less than 0.16 µM.
Work on `O=C(CN1C(=O)c2ccccc2S1(=O)=O)c1ccccc1Cl` yielded an IC50 of 7 µM.
`CCc1ccc(/C=C2/SC(=S)N(CCC(=O)Nc3ccc(C(=O)O)cc3)C2=O)cc1` was tested, and the IC50 was > 80 µM (inactive).
`CC(=C/c1ccco1)/C=N/NC(=O)CSc1nnc(SCc2ccc(C)cc2)s1` was tested, and the IC50 was > 80 µM (inactive).
In the case of `Cc1ccc(C(=O)CSc2nnc(COc3cc(C)cc(C)c3)o2)cc1`, the IC50 is reported as 24.9 µM (inactive).
With `Cc1ccc(C2(c3ccc(C)cc3)CC2C(=O)Nc2ccc([N+](=O)[O-])cc2O)cc1` (stereo not given) the IC50 was 4.59 µM.
For `C/C=C(/C)C(=O)OC1Cc2c(ccc3ccc(=O)oc23)OC1(C)C` (stereo not given), the IC50 was 23.5 µM (inactive).
For `COc1cccc(/C=C2\SC(=S)N(CCCC(=O)NC3=NCCS3)C2=O)c1`, the IC50 was 69.1 µM (inactive).
With `O=S(=O)(c1cnc(Cl)c(Cl)c1)N1CCCc2ccccc21` the IC50 was > 80 µM (inactive).
For `Cc1cc(C)nc(Sc2ccc([N+](=O)[O-])cc2[N+](=O)[O-])n1`, the IC50 was > 80 µM (inactive).
In the case of `COc1ccc(/C=C2\SC(=S)N(CCCC(=O)NNC(=O)c3ccccc3O)C2=O)cc1`, the IC50 is reported as 2.28 µM.
`Cc1ccc(-c2nn3c(C)nnc3c3ccccc23)cc1S(=O)(=O)NCc1ccco1` gave an IC50 of 15.4 µM.
With `CC(=O)Nc1ccc(Nc2nc(-c3sc(NC(C)=O)nc3C)cs2)cc1` the IC50 was 47.1 µM (inactive).
For `COc1ccc(OC)c(NC(=O)c2[nH]c(C)c(C(C)=O)c2C)c1`, the IC50 was > 80 µM (inactive).
`CCOC(=O)c1nn(-c2ccccc2)c(C#N)c1NC(=O)c1nn(CC)cc1Br` was tested, and the IC50 was > 80 µM (inactive).
With `CC(C)(C)c1ccc(-c2nnc(SCC(=O)NC3CC3)o2)cc1` the IC50 was 63.1 µM (inactive).
For `CN(C)CCCN=Cc1c(-c2ccccc2)[nH]n(-c2nc3ccccc3s2)c1=O`, the IC50 was > 80 µM (inactive).
With `O=C(NCCCN1CCOCC1)c1cc(-c2ccc(Br)cc2)on1` the IC50 was 43.7 µM (inactive).
In the case of `COc1ccc(/C=N\NC(=O)c2sccc2C)cc1Cn1nc(C)cc1C`, the IC50 is reported as 25.4 µM (inactive).
In the case of `COc1cccc(-c2noc(CCC(=O)NCCc3ccccc3)n2)c1`, the IC50 is reported as 75.4 µM (inactive).
In the case of `Cc1ccc(/C=C2\SC(=S)N(CCCC(=O)Nc3ccc(O)cc3)C2=O)cc1`, the IC50 is reported as > 80 µM (inactive).
In the case of `CCCc1nc2c(C)cc(-c3nc4ccccc4n3C)cc2n1Cc1ccc(-c2ccccc2C(=O)O)cc1`, the IC50 is reported as > 80 µM (inactive).
For `CCC(=O)N1c2ccccc2[C@@H](N(C(C)=O)c2ccccc2)C[C@H]1C`, the IC50 was 39.2 µM (inactive).
For `Cc1ccccc1-n1c(SCc2c(C)noc2C)nnc1-c1c[nH]c2ccccc12`, the IC50 was 33.8 µM (inactive).
With `CNC(=O)CCc1nc(-c2ccc(C(C)(C)C)cc2)no1` the IC50 was 56.4 µM (inactive).
Work on `CC(C)(C)c1ccc(-c2noc(CCC(N)=O)n2)cc1` yielded an IC50 of 0.27 µM.
In the case of `COC(=O)c1c(NC(=O)c2cccc([N+](=O)[O-])c2)sc(C(N)=O)c1C`, the IC50 is reported as > 80 µM (inactive).
In the case of `Cn1nnnc1Sc1ncnc2scc(Br)c12`, the IC50 is reported as 4.26 µM.
With `COc1ccc(C=C(C(C)=O)C(C)=O)cc1OC` the IC50 was > 80 µM (inactive).
With `O=C(Nc1nc2c(Br)cc(Br)cc2c(=O)s1)c1ccco1` the IC50 was > 80 µM (inactive).
`O=C(CCCN1C(=O)/C(=C/c2ccccc2Cl)SC1=S)Nc1ccccn1` was tested, and the IC50 was 23.7 µM (inactive).
`CC1CCN(CCCNC(=O)COc2cc(=O)n(C)c3ccccc23)CC1` was tested, and the IC50 was > 80 µM (inactive).
`Cc1nc2cc(-c3cccc(F)c3)nn2c(C)c1CCC(=O)N1CCC2(CC1)OCCO2` was tested, and the IC50 was 34 µM (inactive).
For `O=C(CCCN1C(=O)/C(=C/c2ccccc2Cl)SC1=S)NNC(=O)c1ccccc1Cl`, the IC50 was 20 µM.
